Results as given in PMC6736568, “Discovery of Novel Anti-cryptosporidial Activities From Natural Products by in vitro High-Throughput Phenotypic Screening” (Frontiers in Microbiology, 2019).
Where a name gives a salt, the structure may show the parent alone. Read-outs that look alike come from different tables or passages of the source.

What was measured:
Cryptosporidium parvum = assay: qRT-PCR assay of the growth of C. parvum in vitro in HCT-8 host cells (primary and secondary screening, EC50); assay type: cell-based; conditions: Cryptosporidium parvum, HCT-8; for inhibition at 3.3 µM: secondary screening at 3.3 uM, read-out: % Inhibition (3.3 uM)
[1] = primary screening at 10 uM, read-out: Inhibition (%)
[2] = primary screening at 10 uM, treated vs control

SMILES	Hs18S ΔCT (HCT-8 host cells (Hs18S); human, 41 h, 10 μM)	cytotoxicity at 41 h, 10 µM (in vitro; human) [%]	inhibition at 10 µM (Cryptosporidium parvum; [1]) [%]	cytotoxicity at 10 µM (in vitro) [%]	Hs18S ΔCT (HCT-8 host cells (Hs18S); [2])	inhibition at 3.3 µM (Cryptosporidium parvum) [%]	cytotoxicity at 41 h, 10 µM (in vitro) [%]	Hs18S ΔCT (HCT-8 host cells (Hs18S))	inhibition at 10 µM (Cryptosporidium parvum) [%]
O=C1C=C2C(=CCOC2O)O1 (stereo not shown) [PATULIN]	–	–	91.4	43	0.81	10	–	–	–
C=C(C)[C@@H]1CC=C(C(=O)O)CC1 [PERILLIC ACID (-)]	–	–	-16.2	8.9	0.14	–	–	–	–
C=C(C)[C@@H]1CC=C(CO)CC1 [PERILLYL ALCOHOL]	-0.35	-27.4	29.5	–	–	–	–	–	–
NCC(=O)c1ccccc1 [PHENACYLAMINE HYDROCHLORIDE]	1.22	57	9.11	–	–	–	–	–	–
O=C(CCc1ccc(O)cc1)c1c(O)cc(O)cc1O [PHLORETIN]	-0.15	-10.8	-5.73	–	–	–	–	–	–
COc1cc(O)c2c(c1)C(=O)c1cc(C)cc(O)c1C2=O [PHYSCION]	–	–	-57.5	12.9	0.20	–	–	–	–
CNC(=O)Oc1ccc2c(c1)[C@]1(C)CCN(C)[C@@H]1N2C [PHYSOSTIGMINE SALICYLATE]	–	–	-4.89	-8.6	-0.12	–	–	–	–
COc1cc([C@@H]2c3cc4c(cc3[C@H](O)[C@H]3COC(=O)[C@@H]23)OCO4)cc(OC)c1OC [PICROPODOPHYLLIN]	–	–	79.4	–	0.94	56	47.8	–	–
CC(C)(O)[C@@H]1[C@H]2OC(=O)[C@@H]1[C@]1(O)C[C@H]3O[C@]34C(=O)O[C@H]2[C@]14C [PICROTIN]	–	–	-1.94	-14.8	-0.20	–	–	–	–
C=C(C)[C@@H]1[C@H]2OC(=O)[C@@H]1[C@]1(O)C[C@H]3O[C@]34C(=O)O[C@H]2[C@]14C [PICROTOXININ]	–	–	23.1	-75.3	-0.81	–	–	–	–
O=C(O)/C=C/C=C/c1ccc2c(c1)OCO2 [PIPERIC ACID]	–	–	0.79	-1.7	-0.02	–	–	–	–
O=C(/C=C/C=C/c1ccc2c(c1)OCO2)N1CCCCC1 [PIPERINE]	–	–	-12.1	2.1	0.03	–	–	–	–
O=C(O)c1ccc2c(c1)OCO2 [PIPERONYLIC ACID]	–	–	30.3	-3.1	-0.04	–	–	–	–
COc1cc(/C=C/C(=O)N2CCC=CC2=O)cc(OC)c1OC [PIPLARTINE]	–	–	73.7	20.5	0.33	10	–	–	–
O=C(O)[C@@H](O)[C@](O)(Cc1ccc(O)cc1)C(=O)O [PISCIDIC ACID]	–	–	-5.12	-1.7	-0.03	–	–	–	–
CC1=CC(=O)c2c(O)cccc2C1=O [PLUMBAGIN]	1.26	58.1	95.1	–	–	13	–	–	–
COC(=O)[C@]1(C)CC[C@]2(C)CC[C@]3(C)C4=CC=C5C(=CC(=O)C(O)=C5C)[C@]4(C)CC[C@@]3(C)[C@@H]2C1 [PRISTIMERIN]	–	–	94.7	31.6	0.55	30	–	–	–
O=c1c(-c2ccc(O)cc2)coc2c([C@@H]3O[C@H](CO)[C@@H](O)[C@H](O)[C@H]3O)c(O)ccc12 [PUERARIN]	–	-37.4	-23	–	-0.46	–	–	–	–
O=C1c2ccccc2C(=O)c2c(O)c(O)cc(O)c21 [PURPURIN]	–	-14.3	-37.2	–	-0.19	–	–	–	–
NCCCCN [PUTRESCINE DIHYDROCHLORIDE]	–	–	–	-3	–	–	–	-0.04	28.7
CC[C@@]1(O)C[C@H](O[C@H]2C[C@H](N(C)C)[C@H](O)[C@H](C)O2)c2c(cc3c(c2O)C(=O)c2c(O)ccc(O)c2C3=O)[C@H]1C(=O)OC [PYRROMYCIN]	–	–	-46.1	21.5	0.35	–	–	–	–
O=c1c(O)c(-c2ccc(O)c(O)c2)oc2cc(O)cc(O)c12 [QUERCETIN]	–	–	78.4	21.1	0.34	-27	–	–	–
C[C@@H]1O[C@@H](Oc2c(-c3ccc(O)c(O)c3)oc3cc(O)cc(O)c3c2=O)[C@H](O)[C@H](O)[C@H]1O [QUERCITRIN]	–	–	3.89	-57.2	-0.65	–	–	–	–

More lines, main results first:

Hs18S ΔCT (HCT-8 host cells (Hs18S); human, 41 h, 10 μM)	SMILES	cytotoxicity at 41 h, 10 µM (in vitro; human) [%]	inhibition at 10 µM (Cryptosporidium parvum; [1]) [%]	cytotoxicity at 10 µM (in vitro) [%]	Hs18S ΔCT (HCT-8 host cells (Hs18S); [2])	inhibition at 3.3 µM (Cryptosporidium parvum) [%]	cytotoxicity at 41 h, 10 µM (in vitro) [%]	Hs18S ΔCT (HCT-8 host cells (Hs18S))	inhibition at 10 µM (Cryptosporidium parvum) [%]
0.08	NC[C@@H]1O[C@H](O[C@H]2[C@@H](O)[C@H](O[C@@H]3[C@@H](O)[C@H](N)C[C@H](N)[C@H]3O[C@H]3O[C@H](CO)[C@@H](O)[C@H](O)[C@H]3N)O[C@@H]2CO)[C@H](N)[C@@H](O)[C@@H]1O [PAROMOMYCIN SULFATE]	5.5	19.7	–	–	–	–	–	–
1.99	COc1ccc(-c2cc(=O)c3c(O)c(OC)c(O[C@@H]4O[C@H](CO[C@@H]5O[C@@H](C)[C@H](O)[C@@H](O)[C@H]5O)[C@@H](O)[C@H](O)[C@H]4O)cc3o2)cc1 [PECTOLINARIN]	74.8	-21	–	–	–	–	–	–
-0.11	C[C@@]12C[C@@]3(O)O[C@@H](O1)[C@]1(COC(=O)c4ccccc4)[C@H]3C[C@@]12O[C@@H]1O[C@H](CO)[C@@H](O)[C@H](O)[C@H]1O [PEONIFLORIN]	-7.6	-19.9	–	–	–	–	–	–
-0.31	COc1ccc(C(C)=O)c(OC)c1 [PEONOL METHYL ETHER]	-24.3	18.9	–	–	–	–	–	–
-0.23	OCC(O)C(O)C(O)C(O)C(O)CO (stereo not shown) [PERSEITOL]	-17.1	11.3	–	–	–	–	–	–
-0.39	CC(C)=CCc1c(O)cc2oc(C)cc(=O)c2c1O [PEUCENIN]	-31.3	2.08	–	–	–	–	–	–
-0.08	O=C(CCc1ccc(O)cc1)c1c(O)cc(O)cc1O[C@@H]1O[C@H](CO)[C@@H](O)[C@H](O)[C@H]1O [PHLORIDZIN]	-5.8	28.9	–	–	–	–	–	–
-0.36	OC[C@H]1O[C@@H](Oc2cc(O)cc(/C=C/c3ccc(O)cc3)c2)[C@H](O)[C@@H](O)[C@@H]1O [PICEID]	-28.7	4.1	–	–	–	–	–	–
-0.10	CC[C@@H]1C(=O)OC[C@@H]1Cc1cncn1C [PILOCARPINE NITRATE]	-7.3	-30.2	–	–	–	–	–	–
0.21	COc1c(OC)c2occc2c2oc(=O)ccc12 [PIMPINELLIN]	13.3	43.6	–	–	–	–	–	–
-0.59	CC(C)=CCOc1cc2oc(=O)ccc2cc1O [PRENYLETIN]	-50	-6.72	–	–	–	–	–	–
0.00	C=CC1=C(C)c2cc3[nH]c(cc4nc(cc5[nH]c(cc1n2)c(C)c5CCC(=O)O)C(CCC(=O)O)=C4C)c(C)c3C=C [PROTOPORPHYRIN IX]	-0.1	-20.6	–	–	–	–	–	–
-0.13	CC1=CCc2c(cc3oc(C)cc(=O)c3c2O)OC1 [PTAEROXYLIN]	-9.7	-20.7	–	–	–	–	–	–
-0.01	O=c1c(O)cccc2cc(O)c(O)c(O)c12 [PURPUROGALLIN]	-0.7	-12.6	–	–	–	–	–	–
0.08	COC1=C[C@@H](C)[C@@H]2C[C@H]3OC(=O)C[C@H]4C(C)=C(OC)C(=O)[C@H]([C@@]2(C)C1=O)[C@@]34C [QUASSIN]	5.1	29.4	–	–	–	–	–	–
-0.16	CO[C@H]1[C@H](O)[C@@H](O)[C@H](O)[C@H](O)[C@H]1O [QUEBRACHITOL]	-11.4	-39	–	–	–	–	–	–
0.23	O=C(O)[C@]1(O)C[C@@H](O)[C@@H](O)[C@H](O)C1 [QUINIC ACID]	14.6	69.4	–	–	-6	–	–	–
-0.03	C=C[C@H]1C[N@@]2CC[C@H]1C[C@@H]2[C@@H](O)c1ccnc2ccc(OC)cc12 [QUINIDINE GLUCONATE]	-2	11.2	–	–	–	–	–	–
